Measured values published in patent US7981878B2, “Tumor treatment with gliotoxin derivatives” (priority 2005, dated 2011).
pIC50: −log10 of the molar value.

Tests used:
[1] = system: K 562, U 937, HCT-15, HCT-116, SW946, LX-1, P 388, colon-26 cell lines; settings: as indicated in EP 926 242 A1; cited from earlier work
[2] = molecular target: γ-secretase; settings: γ-secretase inhibitor; cited from earlier work
[3] = system: Notch2 (N2^IC); assay: Nuclear Notch2 activity in B-CLL cells by EMSA (band shift assay); assay type: cell-based, human; settings: B-CLL cell cultures incubated with 50 nM Dapt
Procedure: FIG. 3: Gliotoxin is a potent Notch2 trans-activation inhibitor in B-CLL cells. (A) EMSA showing the inhibition of DNA-bound Notch2IC complexes in the presence of 0.2 μg Gliotoxin. B-CLL samples (n=10) were cultured in the presence of 1 ng/ml TPA with or without 0.2 μM Gliotoxin for 24 hours. Nuclear extracts were subjected to EMSA using a oligonucleotide probe spanning a well defined CBF1/NotchIC binding site derived from the CD23a promoter. (B). Corresponding FACS analysis (plus 10 additional B-CLL samples) showing the downregulation of the Notch2 target gene CD23 as well as the induction of apoptosis of Gliotoxin treated B-CLL samples. Columnes represent the percentage of CD19^+CD23^+ (grey bars) and apoptotic cells (black bars: including early apoptotic cells single positive for AnnexinV, and late apoptotic cells double positive for AnnexinV and probidium iodide), respectively.
As drug screening model, a cell culture system was established which conserves the phenotype of freshly isolated B-CLL cells (3×10^6 B-CLL cells/ml RPMI medium+10% FCS, supplemented with 1 ng/ml of TPA). Notch2 activity in the cell nucleus is determined by means of EMSA (electrophoretic mobility shift assay) experiments, and the cell viability (Probidium iodide/annexinV) and CD23 expression (Notch2 target gene) is determined by means of FACS (flow cytometry) analyses, respectively. […]

| Compound | efficacy against tumour cell lines [1] | pIC50 [2] | influence on the activity of N2^IC [3] |
| --- | --- | --- | --- |
| acetylgliotoxin | effective |  |  |
| C[C@H](NC(=O)Cc1cc(F)cc(F)c1)C(=O)N[C@H](C(=O)OC(C)(C)C)c1ccccc1 [Dapt, reference compound] |  | 8.00 to 8.30 | no influence |
